For this test, the target named is S1P1 (Homo sapiens, UniProt P21453). In words: 35S-GTPyS binding assay (membranes). In kind it is biochemical. Particulars: compound 0.1nM-10µM, 0.1nM 35S-GTPyS, 10µM S1P as 100% maximum efficacy, 90 min at room temperature. Here is the method: The effect of the compounds was measured using a 35S-GTPyS binding assay. Briefly, membranes were incubated in a buffer containing 20 mM HEPES pH 7.4, 100 mM NaCl, 10 mM MgCl2, 10µM GDP, 50µg/ml saponin and 0.2% fatty acid-free BSA at various concentrations (0.1nM-10µM) and 0.1nM 35S-GTPyS. 10µM S1P was used as 100% maximum efficacy. The assay was incubated for 90 min at room temperature with gentle mixing, and terminated by filtrating the reaction mixture through GF/C filter plates using the Manifold Filtration System. The filters were immediately washed with sodium phosphate pH 7.4 buffer. After drying the filter plates scintillant liquid were added to each well and 35S-GTPyS binding was measured on a Trilux Scintillation Counter.
S1P1, sequence (P21453 whole entry, species assumed): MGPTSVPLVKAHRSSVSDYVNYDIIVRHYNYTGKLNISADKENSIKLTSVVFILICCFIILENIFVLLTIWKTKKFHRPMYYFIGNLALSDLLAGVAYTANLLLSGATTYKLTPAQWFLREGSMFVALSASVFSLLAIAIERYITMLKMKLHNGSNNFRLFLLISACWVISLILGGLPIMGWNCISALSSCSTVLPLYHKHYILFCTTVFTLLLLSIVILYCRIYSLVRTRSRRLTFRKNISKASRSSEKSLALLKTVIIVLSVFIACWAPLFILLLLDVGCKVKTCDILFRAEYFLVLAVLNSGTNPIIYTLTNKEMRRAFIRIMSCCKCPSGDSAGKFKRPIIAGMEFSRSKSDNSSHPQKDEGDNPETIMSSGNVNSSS

SMILES strings stand for the structures. Structures can show the parent of a compound that is named as a salt.

Broadly, the EC50 is the midpoint of the concentration-response curve. A high value points to a less potent agent. Compound `CCCCN(C(=O)c1ccccc1F)c1nnc(-c2cc(C)c(OCCN3CC(C(=O)O)C3)c(C)c2)s1` [Example 1, 1-[2-(4-{5-[Butyl(2-fluorobenzoyl)amino]-1,3,4-thiadiazol-2-yl}-2,6-dimethylphenoxy)ethyl]azetidine-3-carboxylic acid] returned an EC50 of 2.5 nM.
`CCCCN(C(=O)c1ccccc1F)c1nnc(-c2cc(C)c(OCCNCCc3nn[nH]n3)c(C)c2)s1` [Example 12, N-butyl-N-{5-[3,5-dimethyl-4-(2-{[2-(2H-tetrazol-5-yl)ethyl]amino}ethoxy)phenyl]-1,3,4-thiadiazol-2-yl}-2-fluorobenzamide] yielded an EC50 of 0.4 nM.
`Cc1cc(-c2nnc(N(CC3CC3)C(=O)c3ccccc3Cl)s2)cc(C)c1OCCN1CCC(CC(=O)O)CC1` [Example 23, {1-[2-(4-{5-[(2-chlorobenzoyl)(cyclopropylmethyl)amino]-1,3,4-thiadiazol-2-yl}-2,6-dimethylphenoxy)ethyl]piperidin-4-yl}acetic acid hydrochloride] came in with an EC50 of 4.1 nM.
In turn, `CCCCN(C(=O)c1ccccc1F)c1nnc(-c2ccc(CN3CC(c4nnn[nH]4)C3)cc2)s1` [Example 30, N-butyl-2-fluoro-N-[5-(4-{[3-(1H-tetrazol-5-yl)azetidin-1-yl]methyl}phenyl)-1,3,4-thiadiazol-2-yl]benzamide] came in with an EC50 of 2.3 nM.
`CCCCN(C(=O)c1ccccc1F)c1nnc(-c2cc(C)c(OCCNCCn3cncn3)c(C)c2)s1` [Example 31, N-butyl-N-{5-[3,5-dimethyl-4-(2-{[2-(1H-1,2,4-triazol-1-yl)ethyl]amino}ethoxy)-phenyl]-1,3,4-thiadiazol-2-yl}-2-fluorobenzamide] gave an EC50 of 4.1 nM. Compared with the last compound, the EC50 is about 1.8-fold higher.
For the compound `CCCCN(C(=O)c1ccccc1F)c1nnc(-c2ccc(CNCCO)cc2)s1` [Example 36, N-butyl-2-fluoro-N-[5-(4-{[(2-hydroxyethyl)amino]methyl}phenyl)-1,3,4-thiadiazol-2-yl]benzamide, formate salt], the response was half-maximal at 40 nM (EC50).
The figure for `CCCCN(C(=O)Nc1ccccc1)c1nnc(-c2ccc(CN3CC(C(=O)O)C3)cc2)s1` [Example 40, 1-(4-{5-[(anilinocarbonyl)(butyl)amino]-1,3,4-thiadiazol-2-yl}benzyl)azetidine-3-carboxylic acid] is 70 nM.
In turn, `CCCCN(C(=O)c1ccccc1F)c1nnc(-c2cc(C)c(OCCN(C)CCO)c(C)c2)s1` [Example 57, N-butyl-2-fluoro-N-[5-(4-{2-[(2-hydroxyethyl)(methyl)amino]ethoxy}-3,5-dimethylphenyl)-1,3,4-thiadiazol-2-yl]benzamide] gave an EC50 of 8.5 nM.

Values taken from patent EP2305660A1, “New thiadiazole derivatives” (Almirall, S.A., priority 2009, dated 2011).
